Test [1] has as its target T1, F508del/F508del CFTR (Homo sapiens, UniProt P13569, DEL508-508).
T1 construct: cells isolated from CF patients with the homozygous mutation; endogenous in cells; host or cells: primary human bronchial epithelial (hBE) cells from CF patients homozygous for F508del
Briefly: Trans-Epithelial Current Clamp (TECC) assay using primary human bronchial epithelial cells. Conditions: for Emax (% Dual): maximum percent activity relative to positive control (co-corrector 0.15 μM + potentiator 0.45 μM = 100%), primary hBE cells F508del/F508del; for EC50: primary hBE cells homozygous F508del/F508del, test C2 corrector with co-corrector and potentiator, 18-24 hours at 37° C., equivalent CFTR current (IEQ)/AUC. In kind it is cell-based. Put shortly: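 F508del/F508del primary hBE cells grown 35 days at air-liquid interface were treated basolaterally with C2 correctors plus fixed co-corrector and potentiator for 18-24 h at 37° C. TECC-24 current clamp at 36.5° C in HEPES-buffered F-12 Coon's, pH 7.4; equivalent current IEQ=VT/RT, plus AUC between forskolin peak and bumetanide.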

Test [2] has as its target T2, F508delCFTR (Homo sapiens, UniProt P13569, DEL508-508).
T2 construct: expressed in transfected cells; host or cells: CFBE41o- human lung-derived epithelial cell line, doxycycline-inducible expression
Briefly: Cell Surface Expression-Horse Radish Peroxidase (CSE-HRP) assay in CFBE41o-F508delCFTR-HRP cells. In kind it is cell-based. To be noted: for EC50: CFBE41o-F508delCFTR-HRP cells, 18-24 hours at 33° C., luminescence; for Maximum % activity (with co-corrector) / Maximum % activity (without co-corrector): normalized to on-plate positive control corrector (2 μM). Put shortly: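 CFBE41o- cells expressing F508delCFTR with HRP in the fourth exofacial loop were doxycycline-induced (0.5 μg/mL) for 68–72 h, then exposed to correctors for 18–24 h at 33 °C, with or without 2 μM co-corrector. Surface HRP was read by luminol luminescence, and % activity was normalized to the on-plate positive control; EC50 came from a variable-slope sigmoidal fit (8 points, 3-fold dilution, 20 or 30 μM top).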

Setting [3] is: with co-corrector (2 μM), read-out: EC50 (with co-corrector).
Where [4] appears, read: without co-corrector, read-out: EC50 (without co-corrector).

Read-outs that look alike come from different tables or passages of the source.

T1 sequence (P13569 with tags, fused parts or gaps DEL508-508): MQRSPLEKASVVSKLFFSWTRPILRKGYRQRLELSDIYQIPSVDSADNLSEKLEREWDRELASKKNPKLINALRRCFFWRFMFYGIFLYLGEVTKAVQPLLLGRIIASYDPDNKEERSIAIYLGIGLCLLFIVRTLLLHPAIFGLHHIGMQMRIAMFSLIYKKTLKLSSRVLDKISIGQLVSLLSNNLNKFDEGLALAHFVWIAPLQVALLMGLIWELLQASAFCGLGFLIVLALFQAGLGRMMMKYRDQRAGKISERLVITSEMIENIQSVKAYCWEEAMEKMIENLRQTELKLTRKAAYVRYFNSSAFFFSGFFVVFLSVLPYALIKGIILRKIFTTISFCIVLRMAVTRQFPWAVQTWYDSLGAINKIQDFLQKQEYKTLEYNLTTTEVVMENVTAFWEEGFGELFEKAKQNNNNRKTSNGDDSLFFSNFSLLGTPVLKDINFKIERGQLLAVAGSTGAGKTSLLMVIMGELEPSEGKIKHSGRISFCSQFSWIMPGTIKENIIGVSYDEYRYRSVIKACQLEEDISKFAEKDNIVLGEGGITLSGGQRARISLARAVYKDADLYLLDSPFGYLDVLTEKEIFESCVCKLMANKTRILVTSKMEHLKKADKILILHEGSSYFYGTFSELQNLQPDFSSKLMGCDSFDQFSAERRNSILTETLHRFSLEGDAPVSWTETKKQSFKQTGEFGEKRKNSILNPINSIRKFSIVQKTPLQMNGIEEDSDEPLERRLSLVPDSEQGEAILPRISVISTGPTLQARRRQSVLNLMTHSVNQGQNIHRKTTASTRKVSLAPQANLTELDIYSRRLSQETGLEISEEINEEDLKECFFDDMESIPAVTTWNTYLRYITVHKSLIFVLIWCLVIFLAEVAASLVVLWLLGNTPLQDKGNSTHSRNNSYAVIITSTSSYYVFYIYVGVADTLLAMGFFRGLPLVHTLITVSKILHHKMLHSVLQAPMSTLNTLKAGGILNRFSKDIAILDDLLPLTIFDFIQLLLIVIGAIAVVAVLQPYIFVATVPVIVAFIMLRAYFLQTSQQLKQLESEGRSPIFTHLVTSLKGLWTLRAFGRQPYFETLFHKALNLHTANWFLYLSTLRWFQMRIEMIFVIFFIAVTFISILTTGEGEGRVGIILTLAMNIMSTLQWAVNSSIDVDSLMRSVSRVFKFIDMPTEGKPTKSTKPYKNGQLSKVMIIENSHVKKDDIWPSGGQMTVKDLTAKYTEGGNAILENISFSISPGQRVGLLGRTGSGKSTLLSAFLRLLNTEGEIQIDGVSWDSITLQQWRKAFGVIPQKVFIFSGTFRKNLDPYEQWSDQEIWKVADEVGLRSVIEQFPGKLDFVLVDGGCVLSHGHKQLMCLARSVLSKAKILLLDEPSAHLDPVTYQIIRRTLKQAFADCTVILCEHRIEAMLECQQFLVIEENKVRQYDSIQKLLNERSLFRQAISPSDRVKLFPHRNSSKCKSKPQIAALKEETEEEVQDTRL
T2 sequence (P13569 with tags, fused parts or gaps DEL508-508): as above

For orientation: EC50 means the midpoint of the concentration-response curve. `COc1ccc(C)cc1[C@@]1(C(=O)NS(=O)(=O)c2cccc3nc(C)ccc23)C[C@H]1c1cnc(C(C)C)cn1` (single isomer, unassigned) [Example 63]: the “Emax (% Dual)” value in test [1] is recorded as 315 % Dual. In addition, the results for the EC50 in test [1], in test [2] (setting [3]) and in test [2] (setting [4]) were 97 nM, 890 nM and 1740 nM, respectively. Moreover, the “Maximum % activity (with co-corrector)” value in test [2] (with co-corrector (2 μM)) is 847%. In addition, in test [2] (without co-corrector), the “Maximum % activity (without co-corrector)” value worked out at 399%.
`COc1ccc(C)cc1[C@]1(C(=O)NS(=O)(=O)c2cccc3nc(C)ccc23)C[C@@H]1c1ccccc1C(F)(F)F` (single isomer, unassigned) [Example 30]: the “Emax (% Dual)” value in test [1] came out at 313 % Dual. Further, the EC50 amounted to 46.6 nM in test [1], 260 nM in test [2] (setting [3]) and 263 nM in test [2] (setting [4]). Moreover, the “Maximum % activity (without co-corrector)” value in test [2] (without co-corrector) was determined as 589%.
On the same counts, the results for `COc1ccc(C)cc1[C@]1(C(=O)NS(=O)(=O)c2cccc3nc(C)ccc23)C[C@@H]1c1ccccc1C(F)(F)F` (racemic) [Example 29, rac-(1r,2s)-1-(2-methoxy-5-methylphenyl)-N-(2-methylquinoline-5-sulfonyl)-2-[2-(trifluoromethyl)phenyl]cyclopropane-1-carboxamide] are 241 % Dual, 7.7 nM, 164 nM, 273 nM and 666%.
Consider `COc1ncc([C@H]2C[C@@]2(C(=O)NS(=O)(=O)c2cccc3nc(C)ccc23)c2cc(C)ccc2OC)cn1` (single isomer, unassigned) [Example 38], for which the “Emax (% Dual)” value in test [1] is 202 % Dual. Further, the EC50 in test [1] came out at 219 nM; in test [2] (setting [3]) it was 1810 nM; in test [2] (setting [4]), 3020 nM. Besides, the “Maximum % activity (with co-corrector)” value in test [2] (with co-corrector (2 μM)) turned out to be 995%. Besides, in test [2] (without co-corrector), the “Maximum % activity (without co-corrector)” value is on record as 419%.
Consider `COc1ccc(C)cc1[C@]1(C(=O)NS(=O)(=O)c2cccc3nc(C)ccc23)C[C@@H]1c1cnc(OC)c(OC)n1` [Example 80, (1S,2S)-2-(5,6-dimethoxypyrazin-2-yl)-1-(2-methoxy-5-methylphenyl)-N-(2-methylquinoline-5-sulfonyl)cyclopropane-1-carboxamide], for which the “Emax (% Dual)” value in test [1] was 275 % Dual. In addition, the EC50 is 15.8 nM in test [1], 461 nM in test [2] (setting [3]) and 1320 nM in test [2] (setting [4]). Also, the “Maximum % activity (without co-corrector)” value in test [2] (without co-corrector) was determined as 925%.
On the same counts, the results for `COc1ccc(C)cc1[C@@]1(C(=O)NS(=O)(=O)c2cccc3nc(C)ccc23)C[C@H]1c1ccccc1F` (single isomer, unassigned) [Example 26] are 293 % Dual, 2.8 nM, 337 nM, 368 nM and 515%.
On the same counts, the results for `COc1ccc(C)cc1[C@@]1(C(=O)NS(=O)(=O)c2cccc3nc(C)ccc23)C[C@H]1c1cncc(F)c1` (racemic) [Example 42, rac-(1r,2s)-2-(5-fluoropyridin-3-yl)-1-(2-methoxy-5-methylphenyl)-N-(2-methylquinoline-5-sulfonyl)cyclopropane-1-carboxamide] are 127 % Dual, 182 nM, 1150 nM, 1850 nM and 690%.
For `COc1ccc([C@H]2C[C@@]2(C(=O)NS(=O)(=O)c2cccc3nc(C)ccc23)c2cc(C)ccc2OC)cn1` [Example 32, (1S,2R)-1-(2-methoxy-5-methylphenyl)-2-(6-methoxypyridin-3-yl)-N-(2-methylquinoline-5-sulfonyl)cyclopropane-1-carboxamide], the “Emax (% Dual)” value in test [1] amounted to 259 % Dual. The EC50 was 9.1 nM in test [1], 1440 nM in test [2] (setting [3]) and 2960 nM in test [2] (setting [4]).
In the same order, the values of `COc1ccc(C)cc1[C@@]1(C(=O)NS(=O)(=O)c2cccc3nc(C)ccc23)C[C@H]1c1ccccn1` [Example 13, (1R,2R)-1-(2-methoxy-5-methylphenyl)-N-(2-methylquinoline-5-sulfonyl)-2-(pyridin-2-yl)cyclopropane-1-carboxamide] are 232 % Dual, 57.7 nM, 1490 nM and 2480 nM.
Take `COc1ccc(C)cc1[C@]1(C(=O)NS(=O)(=O)c2cccc3nc(C)ccc23)C[C@@H]1c1ccc(C)nc1` [Example 11, (1S,2R)-1-(2-methoxy-5-methylphenyl)-2-(6-methylpyridin-3-yl)-N-(2-methylquinoline-5-sulfonyl)cyclopropane-1-carboxamide]: the “Emax (% Dual)” value in test [1] is 214 % Dual. Also, the values for the EC50 in test [1], in test [2] (setting [3]) and in test [2] (setting [4]) were 49 nM, 2820 nM and 4600 nM, respectively. Besides, the “Maximum % activity (without co-corrector)” value in test [2] (without co-corrector) came to 679%.
As to `COc1ccc(C)cc1[C@]1(C(=O)NS(=O)(=O)c2cccc3nc(C)ccc23)C[C@@H]1c1ccccc1` (single isomer, unassigned) [Example 3], the “Emax (% Dual)” value in test [1] was 360 % Dual. The concentration giving a half-maximal response (EC50) in test [1] was 0.992 nM; in test [2] (setting [3]), 994 nM; in test [2] (setting [4]), 2450 nM.
On the same counts, the results for `COc1ccc(C)cc1[C@]1(C(=O)NS(=O)(=O)c2cccc3nc(C)ccc23)C[C@@H]1c1ccccc1C` [Example 34, (1S,2R)-1-(2-methoxy-5-methylphenyl)-2-(2-methylphenyl)-N-(2-methylquinoline-5-sulfonyl)cyclopropane-1-carboxamide] are 459 % Dual, 2.9 nM, 385 nM and 783 nM.
On the same counts, the results for `COc1ccc(C)cc1[C@]1(C(=O)NS(=O)(=O)c2cccc3nc(C)ccc23)C[C@@H]1c1cccc(N(C)C)n1` [Example 60, (1S,2S)-2-[6-(dimethylamino)pyridin-2-yl]-1-(2-methoxy-5-methylphenyl)-N-(2-methylquinoline-5-sulfonyl)cyclopropane-1-carboxamide] are 413 % Dual, 6.7 nM, 1030 nM and 2140 nM.
With `CCOc1ccc([C@@H]2C[C@]2(C(=O)NS(=O)(=O)c2cccc3nc(C)ccc23)c2cc(C)ccc2OC)cn1` [Example 59, (1R,2S)-2-(6-ethoxypyridin-3-yl)-1-(2-methoxy-5-methylphenyl)-N-(2-methylquinoline-5-sulfonyl)cyclopropane-1-carboxamide], in test [1], the “Emax (% Dual)” value came to 161 % Dual. Moreover, the EC50 in test [1] worked out at 63.8 nM; in test [2] (setting [3]) it was 779 nM; in test [2] (setting [4]), 1520 nM. Further, the “Maximum % activity (without co-corrector)” value in test [2] (without co-corrector) amounted to 438%.
Regarding `COc1ccc(C)cc1[C@@]1(C(=O)NS(=O)(=O)c2cccc3nc(C)ccc23)C[C@H]1c1cnc(C)c(F)c1` (single isomer, unassigned) [Example 101], the “Emax (% Dual)” value in test [1] was 199 % Dual. Further, the concentration for a half-maximal effect (EC50) turned out to be 147 nM in test [1], 884 nM in test [2] (setting [3]) and 1000 nM in test [2] (setting [4]). Moreover, in test [2] (with co-corrector (2 μM)), the “Maximum % activity (with co-corrector)” value was 842%. For the same compound, in test [2] (without co-corrector), the “Maximum % activity (without co-corrector)” value came out at 243%.
Turning to `COc1ccc(C)cc1[C@]1(C(=O)NS(=O)(=O)c2cccc3nc(C)ccc23)C[C@@H]1c1cncc(F)c1` (single isomer, unassigned) [Example 54], the “Emax (% Dual)” value in test [1] is on record as 355 % Dual. The EC50 in test [1] stood at 50.8 nM; in test [2] (setting [3]), 2000 nM; in test [2] (setting [4]) it was 2930 nM. Further, in test [2] (without co-corrector), the “Maximum % activity (without co-corrector)” value is reported as 890%.
As for `COc1ccc(C)cc1[C@@]1(C(=O)NS(=O)(=O)c2cccc3nc(C)ccc23)C[C@H]1c1ccccc1F` (racemic) [Example 22, rac-(1r,2r)-2-(2-fluorophenyl)-1-(2-methoxy-5-methylphenyl)-N-(2-methylquinoline-5-sulfonyl)cyclopropane-1-carboxamide], the “Emax (% Dual)” value in test [1] turned out to be 268 % Dual. The EC50 in test [1] was 9 nM; in test [2] (setting [3]) it was 844 nM; in test [2] (setting [4]), 929 nM.
With `COc1ccc(C)cc1[C@@]1(C(=O)NS(=O)(=O)c2cccc3nc(C)ccc23)C[C@H]1c1ccc(C)cc1` (single isomer, unassigned) [Example 6], the “Emax (% Dual)” value in test [1] came out at 378 % Dual. Besides, the EC50 was determined as 5.3 nM in test [1], 202 nM in test [2] (setting [3]) and 187 nM in test [2] (setting [4]). Moreover, the “Maximum % activity (without co-corrector)” value in test [2] (without co-corrector) was 982%.
Take `COc1ccc(C)cc1[C@]1(C(=O)NS(=O)(=O)c2cccc3nc(C)ccc23)CC1c1cccc(Cl)n1` (stereo in doubt) [Example 105, (1S,2S)-2-(6-chloropyridin-2-yl)-1-(2-methoxy-5-methylphenyl)-N-(2-methylquinoline-5-sulfonyl)cyclopropane-1-carboxamide]: the “Emax (% Dual)” value in test [1] came out at 296 % Dual. The EC50 in test [1] was 3.1 nM; in test [2] (setting [3]), 277 nM; in test [2] (setting [4]), 1450 nM.

For the origin of these results see US20240043386A1, “Modulators of the Cystic Fibrosis Transmembrane Conductance Regulator Protein and Methods of Use” (AbbVie Global Enterprises Ltd., priority 2021, published 2024).
